From ChEMBL document CHEMBL1201862, “PubChem BioAssay data set” (2004)
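Exposure lasted 48 hours, with cells grown in 96-well plates and compounds tested at five concentrations. At the GI50, growth is halved.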 Active and inactive are the calls of the source. Cut-off read from the data, not from the text of the source: active = GI50 up to about 1.1 µM and inactive = higher.

Assays:
Experiment in all cases: NCI anticancer screen, dose series, 48 h
SF-295 = tested on: SF-295
SK-MEL-5 = tested on: SK-MEL-5
SR = tested on: SR
SW-620 = tested on: SW-620
SF-268 = tested on: SF-268
CAKI-1 = tested on: CAKI-1
NCI-H460 = tested on: NCI-H460
MDA-N = tested on: MDA-N
U-251 = tested on: U-251
T47D = tested on: T47D
Malme-3M = tested on: Malme-3M
A549 = tested on: A549
ACHN = tested on: ACHN
HCT-116 = tested on: HCT-116
UACC-257 = tested on: UACC-257
EKVX = tested on: EKVX
NCI/ADR-RES = tested on: NCI/ADR-RES
SF-539 = tested on: SF-539
MCF7 = tested on: MCF7

SMILES	GI50 (SF-295)	GI50 (SK-MEL-5)	GI50 (SR)	GI50 (SW-620)	GI50 (SF-268)	GI50 (CAKI-1)	GI50 (NCI-H460)	GI50 (MDA-N)	GI50 (U-251)	GI50 (T47D)	GI50 (Malme-3M)	GI50 (A549)	GI50 (ACHN)	GI50 (HCT-116)	GI50 (UACC-257)	GI50 (EKVX)	GI50 (NCI/ADR-RES)	GI50 (SF-539)	GI50 (MCF7)
Cc1ncc(COP(=O)(O)O)c(C)c1O	> 100 µM (inactive)	> 100 µM (inactive)	> 100 µM (inactive)	> 100 µM (inactive)	> 100 µM (inactive)	> 100 µM (inactive)	> 100 µM (inactive)	> 100 µM (inactive)	> 100 µM (inactive)	> 100 µM (inactive)	> 100 µM (inactive)	> 100 µM (inactive)	> 100 µM (inactive)	> 100 µM (inactive)	> 100 µM (inactive)	> 100 µM (inactive)	> 100 µM (inactive)	–	–
CCOC(=O)c1c(NC(=O)c2ccc(Br)cc2)sc2c1CCCC2	> 100 µM (inactive)	> 100 µM (inactive)	> 100 µM (inactive)	> 100 µM (inactive)	> 100 µM (inactive)	> 100 µM (inactive)	0.182 µM (active)	> 100 µM (inactive)	> 100 µM (inactive)	> 100 µM (inactive)	–	> 100 µM (inactive)	> 100 µM (inactive)	> 100 µM (inactive)	> 100 µM (inactive)	> 100 µM (inactive)	–	> 100 µM (inactive)	> 100 µM (inactive)
N#CCc1nc2cc(C(F)(F)F)ccc2s1	49.4 µM (inactive)	50.7 µM (inactive)	–	56.4 µM (inactive)	34.8 µM (inactive)	70.6 µM (inactive)	–	32.2 µM (inactive)	38.7 µM (inactive)	23.1 µM (inactive)	42.6 µM (inactive)	–	56 µM (inactive)	26.7 µM (inactive)	34.4 µM (inactive)	10.7 µM (inactive)	55.7 µM (inactive)	51.8 µM (inactive)	–
Cc1c2c(cc3c1C(=O)C(O)=C([C@@H](C)CO)C3=O)C(C)(C)CCC2	22.3 µM (inactive)	22.2 µM (inactive)	2.84 µM (inactive)	30.2 µM (inactive)	15 µM (inactive)	33.4 µM (inactive)	–	30.7 µM (inactive)	17.5 µM (inactive)	32.8 µM (inactive)	22.8 µM (inactive)	29.8 µM (inactive)	–	25.7 µM (inactive)	35.6 µM (inactive)	15.6 µM (inactive)	23.3 µM (inactive)	–	–
COc1cc(NS(C)(=O)=O)ccc1NCc1c[nH]c2ccc3ncccc3c12	18.5 µM (inactive)	12.4 µM (inactive)	2.75 µM (inactive)	26.1 µM (inactive)	22.4 µM (inactive)	22.4 µM (inactive)	18.2 µM (inactive)	–	27.5 µM (inactive)	10.9 µM (inactive)	20.5 µM (inactive)	27.8 µM (inactive)	21 µM (inactive)	21.2 µM (inactive)	17 µM (inactive)	20.2 µM (inactive)	20.3 µM (inactive)	19.3 µM (inactive)	19.4 µM (inactive)
Clc1ccc(Cn2cc(/C=N/n3cnnc3)c3ccccc32)cc1	33.3 µM (inactive)	19.5 µM (inactive)	39.9 µM (inactive)	> 100 µM (inactive)	45.9 µM (inactive)	21.5 µM (inactive)	11.1 µM (inactive)	–	37.8 µM (inactive)	11.8 µM (inactive)	89.3 µM (inactive)	41.8 µM (inactive)	51.1 µM (inactive)	31.8 µM (inactive)	46.5 µM (inactive)	20.6 µM (inactive)	35 µM (inactive)	40.5 µM (inactive)	28.4 µM (inactive)
COc1nc(N(C)C)nc2c1[n+](C)cn2C [HETEROMINE A]	38.9 µM (inactive)	41.7 µM (inactive)	–	57.5 µM (inactive)	31.8 µM (inactive)	> 100 µM (inactive)	44.2 µM (inactive)	94.6 µM (inactive)	15.6 µM (inactive)	41.5 µM (inactive)	23.1 µM (inactive)	46.9 µM (inactive)	> 100 µM (inactive)	77.8 µM (inactive)	53.1 µM (inactive)	> 100 µM (inactive)	> 100 µM (inactive)	52.6 µM (inactive)	–
